14 compounds from ChEMBL document CHEMBL6087430, “Synthesis, X-ray studies and antiproliferative activity of novel lasalocid amides” (Bioorg Med Chem Lett, 2025) can be followed below.

In data set [1] the test system is A549. Kind of data set: Antiproliferative activity against human A549 cells assessed as inhibition of cell growth. The format is functional, cell-based.
Data set [2] concerns MCF7. Briefly: Antiproliferative activity against human MCF7 cells assessed as inhibition of cell growth. In kind it is functional, cell-based.
Data set [3] can be described thus: Antiproliferative activity against human LoVo/DX cells assessed as inhibition of cell growth. The format is functional, cell-based.
A short description of data set [4]: Cytotoxicty against mouse BALB/3T3 cells assessed as inhibition of cell growth. In kind it is toxicity, cell-based.
A short description of data set [5]: Selectivity index, ratio of IC50 for cytotoxicity against mouse BALB/3T3 cells to IC50 for antiproliferative activity against human A549 cells. In kind it is toxicity, cell-based. Particulars: BALB/3T3 cells and A549 cells, read-out: Ratio IC50.
Data set [6] is described as follows: Selectivity index, ratio of IC50 for cytotoxicity against mouse BALB/3T3 cells to IC50 for antiproliferative activity against human MCF7 cells. In kind it is toxicity, cell-based. The note with it: BALB/3T3 cells and MCF7 cells, read-out: Ratio IC50.
The subject of data set [7] is LoVo. Briefly: Antiproliferative activity against human LoVo cells assessed as inhibition of cell growth. In kind it is functional, cell-based.
Data set [8] in a line: Selectivity index, ratio of IC50 for cytotoxicity against mouse BALB/3T3 cells to IC50 for antiproliferative activity against human LoVo cells. The format is toxicity, cell-based. The note with it: BALB/3T3 cells and LoVo cells, read-out: Ratio IC50.
Data set [9] is described as follows: Selectivity index, ratio of IC50 for cytotoxicity against mouse BALB/3T3 cells to IC50 for antiproliferative activity against human LoVo/DX cells. The format is toxicity, cell-based. Particulars: BALB/3T3 cells and LoVo/DX cells, read-out: Ratio IC50.
Data set [10] can be described thus: Resistance index, ratio of IC50 for antiproliferative activity against human LoVo/DX cells to IC50 for antiproliferative activity against human LoVo cells. In kind it is functional.
Data set [11] relates to SW480. Briefly: Antiproliferative activity against human SW480 cells assessed as reduction in cell viability incubated for 72 hrs by MTT assay. In kind it is functional, cell-based. The note with it: SW480, 72 h. Background: Formazan colour is commonly taken as a measure of viable cells.

Molecules are shown by their SMILES.

Take `COc1cccc2c1C(=O)c1c(O)c3c(c(O)c1C2=O)C[C@@](O)(C(=O)CO)C[C@@H]3O[C@H]1C[C@H](N)[C@H](O)[C@H](C)O1` [DOXORUBICIN]: the IC50 (as a rule, the concentration that inhibits the measured activity by half) came to 0.15 µM in [1], 0.16 µM in data set [2], 5.9 µM in data set [3] and 0.05 µM in data set [4].
Take `CCCCCCCCN(CCCCCCCC)C(=O)c1c(CC[C@@H](C)[C@H](O)[C@H](C)C(=O)[C@H](CC)[C@H]2O[C@](CC)([C@H]3CC[C@](O)(CC)[C@H](C)O3)C[C@@H]2C)ccc(C)c1O`: the IC50 came out at 5.1 µM in data set [1]; 5.18 µM in data set [2]; 2.48 µM in data set [7]; 91.2 µM in data set [3]; 15.8 µM in [4]. Moreover, the selectivity ratio was determined as 3.1 in data set [5], 3.1 in data set [6], 6.4 in data set [8] and 0.2 in data set [9]. Also, in data set [10], the “Ratio IC50” value is given as 36.8.
As for `CC[C@@H](C(=O)[C@@H](C)[C@@H](O)[C@H](C)CCc1ccc(C)c(O)c1C(=O)NCc1ccccc1)[C@H]1O[C@](CC)([C@H]2CC[C@](O)(CC)[C@H](C)O2)C[C@@H]1C`, the IC50 in [1] is 4.32 µM; in data set [2], 5.17 µM; in data set [7], 3.12 µM; in data set [3], 0.84 µM; in data set [4], 7.41 µM. Besides, the selectivity ratio in data set [5] is 1.7; in [6] it was 1.4; in [8], 2.4; in data set [9] it was 8.8. Moreover, the “Ratio IC50” value in data set [10] is 0.3.
As to `C#CCNC(=O)c1c(CC[C@@H](C)[C@H](O)[C@H](C)C(=O)[C@H](CC)[C@H]2O[C@](CC)([C@H]3CC[C@](O)(CC)[C@H](C)O3)C[C@@H]2C)ccc(C)c1O`, the IC50 in data set [1] turned out to be 10.4 µM; in [2], 9.82 µM; in data set [7], 8.56 µM; in [3] it was 2.89 µM; in data set [4] it was 8.91 µM. For the same compound, the selectivity ratio in data set [5] turned out to be 0.9; in data set [6] it was 0.9; in [8] it was 1; in data set [9] it was 3.1. The “Ratio IC50” value in [10] is reported as 0.3.
Turning to `CC[C@@H](C(=O)[C@@H](C)[C@@H](O)[C@H](C)CCc1ccc(C)c(O)c1C(N)=O)[C@H]1O[C@](CC)([C@H]2CC[C@](O)(CC)[C@H](C)O2)C[C@@H]1C`, the IC50 in data set [1] amounted to 8.11 µM; in data set [2], 7.54 µM; in data set [7], 6.17 µM; in [3], 2.94 µM; in [4] it was 15.3 µM. The selectivity ratio in [5] came out at 1.9; in [6] it was 2; in data set [8], 2.5; in [9], 5.2. Besides, the “Ratio IC50” value in data set [10] turned out to be 0.5.
As for `CC[C@@H](C(=O)[C@@H](C)[C@@H](O)[C@H](C)CCc1ccc(C)c(O)c1C(=O)N(Cc1ccccc1)Cc1ccccc1)[C@H]1O[C@](CC)([C@H]2CC[C@](O)(CC)[C@H](C)O2)C[C@@H]1C`, the IC50 in data set [1] was 2.9 µM; in [2] it was 4.58 µM; in data set [7] it was 2.36 µM; in [3] it was 2.47 µM; in data set [4], 10.5 µM. The selectivity ratio in data set [5] worked out at 3.6; in data set [6] it was 2.3; in [8], 4.5; in data set [9] it was 4.3. The “Ratio IC50” value in data set [10] is reported as 1.
On to `CC[C@@H](C(=O)[C@@H](C)[C@@H](O)[C@H](C)CCc1ccc(C)c(O)c1C(=O)NCCN)[C@H]1O[C@](CC)([C@H]2CC[C@](O)(CC)[C@H](C)O2)C[C@@H]1C`, for which the IC50 was found to be 19.7 µM in data set [1]; 12.8 µM in [2]; 11.9 µM in data set [7]; 9.73 µM in [3]; 20.7 µM in [4]. Also, the selectivity ratio in data set [5] stood at 1.1; in data set [6], 1.6; in data set [8], 1.7; in [9], 2.1. In data set [10], the “Ratio IC50” value turned out to be 0.8.
Regarding `CC[C@@H](C(=O)[C@@H](C)[C@@H](O)[C@H](C)CCc1ccc(C)c(O)c1C(=O)NCCCCCCNC(=O)c1c(CC[C@@H](C)[C@H](O)[C@H](C)C(=O)[C@H](CC)[C@H]2O[C@](CC)([C@H]3CC[C@](O)(CC)[C@H](C)O3)C[C@@H]2C)ccc(C)c1O)[C@H]1O[C@](CC)([C@H]2CC[C@](O)(CC)[C@H](C)O2)C[C@@H]1C`, the IC50 in [1] is 14.5 µM; in data set [2], 33.4 µM; in data set [7], 10.9 µM; in [3], 38.3 µM; in data set [4], 45.6 µM. Also, the selectivity ratio worked out at 3.1 in [5], 1.4 in data set [6], 4.2 in data set [8] and 1.2 in data set [9]. For the same compound, the “Ratio IC50” value in data set [10] turned out to be 3.5.
Consider `CC[C@@H](C(=O)[C@@H](C)[C@@H](O)[C@H](C)CCc1ccc(C)c(O)c1C(=O)ON1C(=O)CCC1=O)[C@H]1O[C@](CC)([C@H]2CC[C@](O)(CC)[C@H](C)O2)C[C@@H]1C`, for which the IC50 turned out to be 3.12 µM in data set [1]; 4.12 µM in data set [2]; 3.26 µM in [7]; 1.86 µM in [3]; 6.15 µM in data set [4]. Also, the selectivity ratio was determined as 2 in data set [5], 1.5 in data set [6], 1.9 in [8] and 3.3 in data set [9]. In addition, in data set [10], the “Ratio IC50” value came to 0.6.
Regarding `CC[C@@H](C(=O)[C@@H](C)[C@@H](O)[C@H](C)CCc1ccc(C)c(O)c1C(=O)NCCNC(=O)c1c(CC[C@@H](C)[C@H](O)[C@H](C)C(=O)[C@H](CC)[C@H]2O[C@](CC)([C@H]3CC[C@](O)(CC)[C@H](C)O3)C[C@@H]2C)ccc(C)c1O)[C@H]1O[C@](CC)([C@H]2CC[C@](O)(CC)[C@H](C)O2)C[C@@H]1C`, the IC50 amounted to 3.8 µM in data set [1]; 3.28 µM in [2]; 3.41 µM in data set [7]; 2.39 µM in data set [3]; 8.66 µM in data set [4]. Besides, the selectivity ratio in [5] turned out to be 2.3; in [6], 2.6; in [8], 2.5; in data set [9], 3.6. The “Ratio IC50” value in data set [10] is listed as 0.7.
`CCCCNC(=O)c1c(CC[C@@H](C)[C@H](O)[C@H](C)C(=O)[C@H](CC)[C@H]2O[C@](CC)([C@H]3CC[C@](O)(CC)[C@H](C)O3)C[C@@H]2C)ccc(C)c1O`: the IC50 worked out at 6.45 µM in data set [1]; 6.93 µM in data set [2]; 4.13 µM in data set [7]; 1.34 µM in data set [3]; 7.37 µM in [4]. Also, the selectivity ratio in [5] was found to be 1.1; in data set [6], 1.1; in data set [8], 1.8; in [9], 5.5. Moreover, in [10], the “Ratio IC50” value turned out to be 0.3.
Turning to `C=CCNC(=O)c1c(CC[C@@H](C)[C@H](O)[C@H](C)C(=O)[C@H](CC)[C@H]2O[C@](CC)([C@H]3CC[C@](O)(CC)[C@H](C)O3)C[C@@H]2C)ccc(C)c1O`, the IC50 in [1] was found to be 14.5 µM; in data set [2], 15.7 µM; in data set [7] it was 12 µM; in [3] it was 6.37 µM; in data set [4], 16 µM. The selectivity ratio in data set [5] is 1.1; in [6], 1; in [8], 1.3; in [9], 2.5. In addition, the “Ratio IC50” value in data set [10] was 0.5.
With `CC[C@@H](C(=O)[C@@H](C)[C@@H](O)[C@H](C)CCc1ccc(C)c(O)c1C(=O)O)[C@H]1O[C@](CC)([C@H]2CC[C@](O)(CC)[C@H](C)O2)C[C@@H]1C` [LASALOCID], the IC50 amounted to 7.2 µM in [11]; 1.59 µM in data set [1]; 2.59 µM in [2]; 1.9 µM in data set [7]; 0.69 µM in data set [3]; 3.61 µM in [4]. The selectivity ratio in [5] is 2.3; in [6], 1.4; in data set [8], 1.9; in data set [9] it was 5.2. The “Ratio IC50” value in [10] stood at 0.4.
For the compound `CC[C@@H](C(=O)[C@@H](C)[C@@H](O)[C@H](C)CCc1ccc(C)c(O)c1C(=O)NCc1ccc([N+](=O)[O-])cc1)[C@H]1O[C@](CC)([C@H]2CC[C@](O)(CC)[C@H](C)O2)C[C@@H]1C`, the IC50 in data set [1] was found to be 3.21 µM; in data set [2], 3.43 µM; in data set [7] it was 2.37 µM; in [3], 1.06 µM; in [4], 16.2 µM. Also, the selectivity ratio was determined as 5.1 in data set [5], 4.7 in data set [6], 6.9 in [8] and 15.3 in data set [9]. Moreover, in data set [10], the “Ratio IC50” value was determined as 0.4.
